According to patent US20240182431A1, “NEW CONTRAST AGENT FOR USE IN MAGNETIC RESONANCE IMAGING” (Bayer Aktiengesellschaft, priority 2021, published 2024):

Assay: Partition coefficient (logP butanol/buffer)
Type: physicochemical
Details: 1-butanol / 50 mM Tris-HCl, pH 7.4, room temperature

Log P (butanol/buffer)	SMILES
−1.61	CCOCCOCCOc1ccc(C[C@H](C(=O)O)N2CCN(CC(=O)[O-])CCN(CC(=O)[O-])CCN(CC(=O)[O-])CC2)cc1.[Gd+3] [Example 4, gadolinium 2,2′,2″-{10-[(1R)-1-carboxy-2-{4-[2-(2-ethoxyethoxy)ethoxy]phenyl}ethyl]-1,4,7,10-tetraazacyclododecane-1,4,7-triyl}triacetate]
−1.70	CCOCCOCCOCCOc1ccc(CC(C(=O)O)N2CCN(CC(=O)[O-])CCN(CC(=O)[O-])CCN(CC(=O)[O-])CC2)cc1.[Gd+3] (stereo not drawn) [Example 10, gadolinium 2,2′,2″-{10-[1-carboxy-2-(4-{2-[2-(2-ethoxyethoxy)ethoxy]ethoxy}phenyl)ethyl]-1,4,7,10-tetraazacyclododecane-1,4,7-triyl}triacetate]
−1.68	CCOCCOCCOCCOc1ccc(C[C@@H](C(=O)O)N2CCN(CC(=O)[O-])CCN(CC(=O)[O-])CCN(CC(=O)[O-])CC2)cc1.[Gd+3] [Example 11, gadolinium 2,2′,2″-{10-[(1S)-1-carboxy-2-(4-{2-[2-(2-ethoxyethoxy)ethoxy]ethoxy}phenyl)ethyl]-1,4,7,10-tetraazacyclododecane-1,4,7-triyl}triacetate]
−1.68	CCOCCOCCOCCOc1ccc(C[C@H](C(=O)O)N2CCN(CC(=O)[O-])CCN(CC(=O)[O-])CCN(CC(=O)[O-])CC2)cc1.[Gd+3] [Example 12, gadolinium 2,2′,2″-{10-[(1R)-1-carboxy-2-(4-{2-[2-(2-ethoxyethoxy)ethoxy]ethoxy}phenyl)ethyl]-1,4,7,10-tetraazacyclododecane-1,4,7-triyl}triacetate]
−1.53	CCOCCOCCOCCOc1ccc(CC(C(=O)O)N2CCN(CC(=O)[O-])CCN(C(COC)C(=O)[O-])CCN(CC(=O)[O-])CC2)cc1.[Gd+3] (stereo not drawn) [Example 13, gadolinium 2-{7-[1-carboxy-2-(4-{2-[2-(2-ethoxyethoxy)ethoxy]ethoxy}phenyl)ethyl]-4,10-bis(carboxylatomethyl)-1,4,7,10-tetraazacyclododecan-1-yl}-3-methoxypropanoate]
−1.81	CCOCCOCCOc1ccc(CC(C(=O)O)N2CCN(CC(=O)[O-])CCN(CC(=O)[O-])CCN(CC(=O)[O-])CC2)cn1.[Gd+3] (stereo not drawn) [Example 16, gadolinium 2,2′,2″-{10-[1-carboxy-2-{6-[2-(2-ethoxyethoxy)ethoxy]pyridin-3-yl}ethyl]-1,4,7,10-tetraazacyclododecane-1,4,7-triyl}triacetate]
−1.11	CCOCCOCCOc1ccc(CCC[C@H](C(=O)O)N2CCN([C@@H](CO)C(=O)[O-])CCN([C@@H](CO)C(=O)[O-])CCN([C@@H](CO)C(=O)[O-])CC2)cc1.[Gd+3] [Example 18, gadolinium (2S,2′S,2″S)-2,2′,2″-{10-[(1R)-1-carboxy-4-{4-[2-(2-ethoxyethoxy)ethoxy]phenyl}butyl]-1,4,7,10-tetraazacyclododecane-1,4,7-triyl}tris(3-hydroxypropanoate)]
−0.95	CCOCCOCCOc1ccc(CCC[C@H](C(=O)O)N2CCN([C@H](CO)C(=O)[O-])CCN([C@H](CO)C(=O)[O-])CCN([C@H](CO)C(=O)[O-])CC2)cc1.[Gd+3] [Example 19, gadolinium (2R,2R,2″R)-2,2′,2″-{10-[(1R)-1-carboxy-4-{4-[2-(2-ethoxyethoxy)ethoxy]phenyl}butyl]-1,4,7,10-tetraazacyclododecane-1,4,7-triyl}tris(3-hydroxypropanoate)]
−1.11	CCOCCOCCOc1ccc(CCC[C@@H](C(=O)O)N2CCN([C@H](CO)C(=O)[O-])CCN([C@H](CO)C(=O)[O-])CCN([C@H](CO)C(=O)[O-])CC2)cc1.[Gd+3] [Example 20, gadolinium (2R,2′R,2″R)-2,2′,2″-{10-[(1S)-1-carboxy-4-{4-[2-(2-ethoxyethoxy)ethoxy]phenyl}butyl]-1,4,7,10-tetraazacyclododecane-1,4,7-triyl}tris(3-hydroxypropanoate)]
−1.94	CCOCCOCCOc1ccc(CC(C(=O)O)N2CCN(CC(=O)[O-])CCN(CC(=O)[O-])CCN(CC(=O)[O-])CC2)nc1.[Gd+3] (stereo not drawn) [Example 23, gadolinium 2,2′,2″-{10-[1-carboxy-2-{5-[2-(2-ethoxyethoxy)ethoxy]pyridin-2-yl}ethyl]-1,4,7,10-tetraazacyclododecane-1,4,7-triyl}triacetate]
−0.71	CCCOc1ccc(CCC(C(=O)O)N2CCN(CC(=O)[O-])CCN(CC(=O)[O-])CCN(CC(=O)[O-])CC2)cc1.[Gd+3] (stereo not drawn) [Example 24, gadolinium 2,2′,2″-{10-[1-carboxy-3-(4-propoxyphenyl)propyl]-1,4,7,10-tetraazacyclododecane-1,4,7-triyl}triacetate]
−1.01	CCOCCOCCOc1ccc(CCC[C@@H](C(=O)O)N2CCN(CC(=O)[O-])CCN(CC(=O)[O-])CCN(CC(=O)[O-])CC2)cc1.[Gd+3] [Example 26, gadolinium 2,2′,2″-{10-[(1S)-1-carboxy-4-{4-[2-(2-ethoxyethoxy)ethoxy]phenyl}butyl]-1,4,7,10-tetraazacyclododecane-1,4,7-triyl}triacetate]
−0.41	CCOc1ccc(CCCC[C@@H](C(=O)O)N2CCN(CC(=O)[O-])CCN(CC(=O)[O-])CCN(CC(=O)[O-])CC2)cc1.[Gd+3] [Example 27, gadolinium 2,2′,2″-{10-[(1S)-1-carboxy-5-(4-ethoxyphenyl)pentyl]-1,4,7,10-tetraazacyclo-dodecane-1,4,7-triyl}triacetate]
−0.71	CCOc1ccc(CCCC(C(=O)O)N2CCN(CC(=O)[O-])CCN(CC(=O)[O-])CCN(CC(=O)[O-])CC2)cc1.[Gd+3] (stereo not drawn) [Example 28, gadolinium 2,2′,2″-{10-[1-carboxy-4-(4-ethoxyphenyl)butyl]-1,4,7,10-tetraazacyclododecane-1,4,7-triyl}triacetate]
−0.53	CCCC(C(=O)[O-])N1CCN(CC(=O)[O-])CCN(C(Cc2ccc(OCC)cc2)C(=O)O)CCN(CC(=O)[O-])CC1.[Gd+3] (stereo not drawn) [Example 29, gadolinium 2-{7-[1-carboxy-2-(4-ethoxyphenyl)ethyl]-4,10-bis(carboxylatomethyl)-1,4,7,10-tetraazacyclododecan-1-yl}pentanoate]
−0.60	CCCC(C(=O)[O-])N1CCN(CC(=O)[O-])CCN(C(Cc2ccc(OCC)cc2)C(=O)O)CCN(CC(=O)[O-])CC1.[Gd+3] (stereo not drawn) [Example 30, gadolinium 2-{7-[1-carboxy-2-(4-ethoxyphenyl)ethyl]-4,10-bis(carboxylatomethyl)-1,4,7,10-tetraazacyclododecan-1-yl}pentanoate]
−1.53	CCOCCOc1ccc(CC(C(=O)O)N2CCN(CC(=O)[O-])CCN(CC(=O)[O-])CCN(CC(=O)[O-])CC2)cc1.[Gd+3] (stereo not drawn) [Example 32, gadolinium 2,2′,2″-(10-{1-carboxy-2-[4-(2-ethoxyethoxy)phenyl]ethyl}-1,4,7,10-tetraazacyclododecane-1,4,7-triyl)triacetate]
−1.02	CCOCCOCCOc1ccc(CCC[C@@H](C(=O)O)N2CCN([C@@H](CO)C(=O)[O-])CCN([C@H](CO)C(=O)[O-])CCN([C@@H](CO)C(=O)[O-])CC2)cc1.[Gd+3] [Example 35, gadolinium (2S,2′S)-2,2′-{4-[(1S)-1-carboxy-4-{4-[2-(2-ethoxyethoxy)ethoxy]phenyl}butyl]-10-[(1R)-1-carboxylato-2-hydroxyethyl]-1,4,7,10-tetraazacyclododecane-1,7-diyl}bis(3-hydroxypropanoate)]
−1.41	CCOCCOc1ccc(CC(C(=O)O)N2CCN(CC(=O)[O-])CCN(C(COC)C(=O)[O-])CCN(CC(=O)[O-])CC2)cc1.[Gd+3] (stereo not drawn) [Example 38, gadolinium 2-[7-{1-carboxy-2-[4-(2-ethoxyethoxy)phenyl]ethyl}-4,10-bis(carboxylatomethyl)-1,4,7,10-tetraazacyclododecan-1-yl]-3-methoxypropanoate]

SMILES	Log P (butanol/buffer)
CCCCOc1ccc(CCCC[C@@H](C(=O)O)N2CCN([C@@H](CO)C(=O)[O-])CCN([C@@H](CO)C(=O)[O-])CCN([C@@H](CO)C(=O)[O-])CC2)cc1.[Gd+3] [Example 9, gadolinium (2S,2′S,2″S)-2,2′,2″-{10-[(1S)-5-(4-butoxyphenyl)-1-carboxypentyl]-1,4,7,10-tetraazacyclododecane-1,4,7-triyl}tris(3-hydroxypropanoate)]	0.26
CCCCOc1ccc(CC(C(=O)O)N2CCN(CC(=O)[O-])CCN(CC(=O)[O-])CCN(CC(=O)[O-])CC2)cc1.[Gd+3] (stereo not drawn) [Example 14, gadolinium 2,2′,2″-{10-[2-(4-butoxyphenyl)-1-carboxyethyl]-1,4,7,10-tetraazacyclododecane-1,4,7-triyl}triacetate]	−0.38
CCCCOc1ccc(CCC[C@@H](C(=O)O)N2CCN(CC(=O)[O-])CCN(CC(=O)[O-])CCN(CC(=O)[O-])CC2)cc1.[Gd+3] [Example 31, gadolinium 2,2′,2″-{10-[(1S)-4-(4-butoxyphenyl)-1-carboxybutyl]-1,4,7,10-tetraazacyclododecane-1,4,7-triyl}triacetate]	0.20
CCCCOc1cccc(CCC[C@@H](C(=O)O)N2CCN([C@@H](CO)C(=O)[O-])CCN([C@@H](CO)C(=O)[O-])CCN([C@@H](CO)C(=O)[O-])CC2)c1.[Gd+3] [Example 34, gadolinium (2S,2′S,2″S)-2,2′,2″-{10-[(1S)-4-(3-butoxyphenyl)-1-carboxybutyl]-1,4,7,10-tetraazacyclododecane-1,4,7-triyl}tris(3-hydroxypropanoate)]	0.12
CCOCCOCCOc1ccc(CC(C(=O)O)N2CCN(C(CCO)C(=O)[O-])CCN(C(CCO)C(=O)[O-])CCN(C(CCO)C(=O)[O-])CC2)cc1.[Gd+3] (stereo not drawn) [Example 37, gadolinium-2,2′-{4-[1-carboxy-2-{4-[2-(2-ethoxyethoxy)ethoxy]phenyl}ethyl]-10-[1-carboxylato-3-hydroxypropyl]-1,4,7,10-tetraazacyclododecane-1,7-diyl}bis(4-hydroxybutanoate)]	−1.16
